Laboratory results published in ChEMBL document CHEMBL1158914, “Antitumor agents, 115. Seselidiol, a new cytotoxic polyacetylene from Seseli mairei” (1990).
In brackets after ≈: the same amount, converted by molar mass.

Columns and labels:
Assay type in all cases: functional
KB = experiment: Cytotoxicity against human KB cells; details: read-out: ED50 (the source's name)
HCT-8 = experiment: Cytotoxicity against human HCT8 cells; details: read-out: ED50 (the source's name)
L1210 = experiment: Cytotoxicity against mouse L1210 cells; details: read-out: ED50 (the source's name)
P388 [1] = experiment: Cytotoxicity against mouse P388 cells; details: read-out: ED50 (the source's name)
P388 [2] = experiment: Antileukemic activity against mouse P388 cells xenografted in mouse at 3 mg/kg after 3 days relative to control

Compound	EC50 (KB) [µg/mL]	EC50 (HCT-8) [µg/mL]	EC50 (L1210) [µg/mL]	EC50 (P388 [1]) [µg/mL]	T/C (P388 [2]) [%]
C=CC(=O)C#CC#C/C=C\C(=O)CCCCCCC	> 10	3.7 (≈ 14.4 µM)	> 10	> 10	–
CCC[C@@H](O)/C=C/C=C/C=C/C#CC#CCCCO [CICUTOXIN]	2 (≈ 7.74 µM)	–	–	–	165
COc1cccc2c1C(=O)c1c(O)c3c(c(O)c1C2=O)C[C@@](O)(C(=O)CO)C[C@@H]3O[C@H]1C[C@H](N)[C@H](O)[C@H](C)O1.Cl [DOXORUBICIN HYDROCHLORIDE]	–	0.3	–	–	–
COc1cc([C@@H]2c3cc4c(cc3[C@@H](O[C@@H]3O[C@@H]5CO[C@@H](C)O[C@H]5[C@H](O)[C@H]3O)[C@H]3COC(=O)[C@H]23)OCO4)cc(OC)c1O [ETOPOSIDE]	0.1 (≈ 0.17 µM)	–	1.6 (≈ 2.72 µM)	2.6 (≈ 4.42 µM)	–
C=CC(C#CC#C/C=C\C(CCCCCCC)OC(C)=O)OC(C)=O (stereo not drawn) [SESELIDIOL DIACETATE]	4	7.8	5.5	5.2	–
C=CC(O)C#CC#C/C=C\C(O)CCCCCCC (stereo not drawn) [SESELIDIOL]	1 (≈ 3.84 µM)	10 (≈ 38.4 µM)	3.3 (≈ 12.7 µM)	4.9 (≈ 18.8 µM)	–
